A value given as a limit tells only on which side of the number the result lay.

The experiment addresses T1, Endothelial lipase (EL) (Homo sapiens, UniProt Q9Y5X9).
T1 construct: HT-1080 cells that were transformed using RAGE technology (Athersys) to overexpress endogenous EL; endogenous in cells; conditioned medium used
T1 sequence (Q9Y5X9 21-500): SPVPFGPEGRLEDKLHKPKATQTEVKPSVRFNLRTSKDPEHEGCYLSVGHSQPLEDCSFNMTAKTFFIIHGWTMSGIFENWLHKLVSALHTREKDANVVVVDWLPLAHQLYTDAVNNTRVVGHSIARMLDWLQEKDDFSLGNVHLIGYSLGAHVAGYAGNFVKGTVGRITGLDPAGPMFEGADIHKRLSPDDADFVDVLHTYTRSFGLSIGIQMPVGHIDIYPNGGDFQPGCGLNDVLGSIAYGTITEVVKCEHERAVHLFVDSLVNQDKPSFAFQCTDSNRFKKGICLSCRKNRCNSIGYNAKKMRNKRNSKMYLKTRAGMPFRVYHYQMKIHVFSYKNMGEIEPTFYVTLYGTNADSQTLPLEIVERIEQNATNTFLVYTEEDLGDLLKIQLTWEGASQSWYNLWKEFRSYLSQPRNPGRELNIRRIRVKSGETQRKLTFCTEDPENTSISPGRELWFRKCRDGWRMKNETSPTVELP
The experiment can be described thus: Endothelial lipase (EL) enzymatic assay, fluorescent substrate A10070 in DMPG vesicles. Format: biochemical. Particulars: EL from conditioned media of HT-1080 cells; compound preincubated 30 min at 37° C; read-out: EL IC50. As to the method:
Endothelial lipase (EL) and hepatic lipase (HL) activities were measured using a fluorescent substrate, A10070, (Invitrogen, CA) doped into an artificial vesicle containing DMPG (Avanti Polar Lipids) as the excipient. Vesicles were prepared by combining 571 μL of 29 mM DMPG in a 1:1 mixture of MeOH and CHCl3 with 2000 μL of 1 mM A10070 in a 1:1 mixture of MeOH and CHCl3. The mixture was dried under nitrogen in multiple vials then resuspended in 20 mL total volume of 50 mM HEPES pH 8.0 buffer containing 50 mM NaCl and 0.2 mM EDTA. The sample was allowed to sit at room temperature for 15 min and then was sonicated 3×4 mins on ice with a Branson Sonicator using duty cycle 1. This preparation provides vesicles with a mole fraction of 0.11 for the FRET substrate.
The enzymatic assay was measured using 384-well white Optiplates. Each well contained 20 μL of assay buffer (50 mM HEPES pH 8.0, 50 mM NaCl and 1 mM CaCl2) and 0.25 μL of a DMSO solution containing a compound of interest. EL or HL (10 μL) was added and allowed to incubate with the compound for 30 min at 37° C. The source of EL was conditioned media obtained from HT-1080 cells that were transformed using RAGE technology (Athersys) to overexpress endogenous EL, and HL was partially purified from conditioned media obtained from COS cells overexpressing HL. The reaction was started by the addition of 10 μL of a 1:10 dilution of vesicles. The final total reaction volume was […]. The reaction rates were measured on a Gemini plate reader with an excitation wavelength of 490 nm and an emission wavelength of 530 nm. Readings were taken over a period of 60 minutes, and the slope between 300 and 900 secs of the readout was used to calculate the rate of the reaction.
As a reminder, the IC50 is the concentration that inhibits the measured activity by half. For `NS(=O)(=O)NCc1nnc(C(c2nc3ccc(-c4ccccc4)cc3s2)S(=O)(=O)Cc2cccc(Br)c2)o1` (centres unmarked) [Example 57], the IC50 was below 10 nM.
In the case of `CC(C)S(=O)(=O)C(c1nnc(CNS(N)(=O)=O)o1)c1nc2ccc(-c3ccccc3)cc2s1` (centres unmarked) [Example 49], the IC50 was below 10 nM.
The value for `CS(=O)(=O)C(c1nnc(CC2NC(=O)NC2=O)o1)c1nc2ccc(-c3ccccc3)cc2s1` (centres unmarked) [Example 30, 5-((5-((methylsulfonyl) (6-phenyl-1,3-benzothiazol-2-yl)methyl)-1,3,4-oxadiazol-2-yl)methyl)-2,4-imidazolidinedione] was 16 nM; that for `NS(=O)(=O)NCc1nnc(C(c2nc3ccc(-c4ccccc4)cc3s2)S(=O)(=O)Cc2cc(C(F)(F)F)cc(C(F)(F)F)c2)o1` (centres unmarked) [Example 72, N-((5-(((3,5-bis (trifluoromethyl)benzyl)sulfonyl) (6-phenyl-1,3-benzothiazol-2-yl)methyl)-1,3,4-oxadiazol-2-yl)methyl)sulfamide] was below 10 nM; that for `Cc1cc2nc(C(c3nnc(CC4SC(=O)NC4=O)o3)S(C)(=O)=O)sc2cc1-c1ccccc1` (centres unmarked) [Example 96, 5-((5-((5-methyl-6-phenylbenzo[d]thiazol-2-yl)(methyl-sulfonyl)methyl)-1,3,4-oxadiazol-2-yl)methyl)thiazolidine-2,4-dione] was below 10 nM.
The value for `CN(C)C(=O)Cc1nnc(C(c2nc3ccc(-c4ccccc4)cc3s2)S(=O)(=O)Cc2ccccc2)o1` (centres unmarked) [Example 39, 2-(5-((benzylsulfonyl)(6-phenylbenzo[d]thiazol-2-yl)methyl)-1,3,4-oxadiazol-2-yl)-N,N-dimethylacetamide] was 190 nM; that for `COc1nc(-c2nnc(C(c3nc4ccc(-c5ccc(F)cc5)cc4s3)S(C)(=O)=O)o2)c(O)c(=O)[nH]1` (centres unmarked) [Example 43, 6-(5-((6-(4-Fluorophenyl)benzo[d]thiazol-2-yl)(methylsulfonyl)methyl)-1,3,4-oxadiazol-2-yl)-5-hydroxy-2-methoxypyrimidin-4(3H)-one] was 14 nM.
As to `Cc1cccc(CS(=O)(=O)C(c2nnc(CNS(N)(=O)=O)o2)c2nc3ccc(-c4ccccc4)cc3s2)c1` (centres unmarked) [Example 64, N-((5-(((3-methylbenzyl)sulfonyl)(6-phenyl-1,3-benzothiazol-2-yl)methyl)-1,3,4-oxadiazol-2-yl)methyl)sulfamide], the IC50 was below 10 nM.
With `CC1(Cc2nnc(C(c3nc4ccc(-c5ccnc(F)c5)cc4s3)S(C)(=O)=O)o2)NC(=O)NC1=O` (single isomer, unassigned; isomer a) [Example 13, 5-((5-((6-(2-fluoropyridin-4-yl)benzo[d]thiazol-2-yl)(methylsulfonyl)methyl)-1,3,4-oxadiazol-2-yl)methyl)-5-methylimidazolidine-2,4-dione (Isomer A)] the figure was below 10 nM; with `Cc1cc2nc(C(c3nnc(CC4SC(=O)NC4=O)o3)S(=O)(=O)Cc3ccccc3)sc2cc1-c1ccccc1` (centres unmarked) [Example 97, 5-((5-((benzylsulfonyl) (5-methyl-6-phenyl-benzo[d]thiazol-2-yl)methyl)-1,3,4-oxadiazol-2-yl)methyl)thiazolidine-2,4-dione], below 10 nM; with `CC1(Cc2nnc(C(c3nc4ccc(-c5ccc(C(=O)N6CCOCC6)cc5)cc4s3)S(=O)(=O)Cc3ccccc3)o2)NC(=O)NC1=O` (centres unmarked) [Example 8, 5-((5-((benzylsulfonyl)(6-(4-(morpholine-4-carbonyl)phenyl)benzo[d]thiazol-2-yl)methyl)-1,3,4-oxadiazol-2-yl)methyl)-5-methylimidazolidine-2,4-dione], 62 nM.
For the molecule `NS(=O)(=O)NCc1nnc(C(c2nc3ccc(-c4ccccc4)cc3s2)S(=O)(=O)Cc2ccccc2)o1` (centres unmarked) [Example 47, N-((5-((benzylsulfonyl) (6-phenyl-1,3-benzothiazol-2-yl)methyl)-1,3,4-oxadiazol-2-yl)methyl)sulfamide], the half-inhibitory concentration (IC50) is below 10 nM.
The value for `CC1(Cc2nnc(C(c3nc4ccc(-c5ccc(C(=O)N6CCOCC6)cc5)cc4s3)S(C)(=O)=O)o2)NC(=O)NC1=O` (single isomer, unassigned; isomer b) [Example 15, 5-methyl-5-((5-((methylsulfonyl)(6-(4-(morpholine-4-carbonyl)phenyl)benzo[d]thiazol-2-yl)methyl)-1,3,4-oxadiazol-2-yl)methyl)imidazolidine-2,4-dione (Isomer B)] was 65 nM.
As for `NS(=O)(=O)NCc1nnc(C(c2nc3ccc(-c4ccccc4)cc3s2)S(=O)(=O)Cc2ccc(F)cc2)o1` (centres unmarked) [Example 69, N-((5-(((4-fluorobenzyl)sulfonyl)(6-phenyl-1,3-benzothiazol-2-yl)methyl)-1,3,4-oxadiazol-2-yl)methyl)sulfamide], the IC50 is below 10 nM.
Take `CCS(=O)(=O)C(c1nnc(CNS(N)(=O)=O)o1)c1nc2ccc(-c3ccccc3)cc2s1` (centres unmarked) [Example 65, N-({5-[(ethylsulfonyl) (6-phenyl-1,3-benzothiazol-2-yl)methyl]-1,3,4-oxadiazol-2-yl}methyl)sulfuric diamide]: the IC50 was below 10 nM.
The value for `CC1(Cc2nnc(C(c3nc4ccc(-c5ccc(C(=O)N6CCOCC6)cc5)cc4s3)S(C)(=O)=O)o2)NC(=O)NC1=O` (single isomer, unassigned; isomer a) [Example 14, 5-methyl-5-((5-((methylsulfonyl)(6-(4-(morpholine-4-carbonyl)phenyl)benzo[d]thiazol-2-yl)methyl)-1,3,4-oxadiazol-2-yl)methyl)imidazolidine-2,4-dione (Isomer A)] was 12 nM; that for `NS(=O)(=O)NCc1nnc(C(c2nc3ccc(-c4ccccc4)cc3s2)S(=O)(=O)CC2CCCCC2)o1` (centres unmarked) [Example 71, N-((5-(((cyclohexylmethyl)sulfonyl)(6-phenyl-1,3-benzothiazol-2-yl)methyl)-1,3,4-oxadiazol-2-yl)methyl)sulfamide] was below 10 nM; that for `COc1ccc(OCCCS(=O)(=O)C(c2nnc(CNS(N)(=O)=O)o2)c2nc3ccc(-c4ccccc4)cc3s2)cc1` (centres unmarked) [Example 55, N-((5-(((3-(4-methoxyphenoxy)propyl)sulfonyl) (6-phenyl-1,3-benzothiazol-2-yl)methyl)-1,3,4-oxadiazol-2-yl)methyl)sulfamide] was below 10 nM.
The value for `CN(C)C(=O)CCc1nnc(C(c2nc3ccc(-c4ccccc4)cc3s2)S(=O)(=O)Cc2ccccc2)o1` (centres unmarked) [Example 41, 3-(5-((benzylsulfonyl)(6-phenylbenzo[d]thiazol-2-yl)methyl)-1,3,4-oxadiazol-2-yl)-N,N-dimethylpropanamide] was 58 nM; that for `Cn1cc(-c2ccc3nc(C(c4nnc(CC5SC(=O)NC5=O)o4)S(C)(=O)=O)sc3c2)cn1` (centres unmarked) [Example 24, 5-((5-((6-(1-methyl-1H-pyrazol-4-yl)benzo[d]thiazol-2-yl)(methylsulfonyl)methyl)-1,3,4-oxadiazol-2-yl)methyl) thiazolidine-2,4-dione] was below 10 nM.
With `CC1(Cc2nnc(C(c3nc4ccc(-c5ccnc(F)c5)cc4s3)S(=O)(=O)Cc3ccccc3)o2)NC(=O)NC1=O` (single isomer, unassigned; isomer a) [Example 9, 5-((5-((benzylsulfonyl)(6-(2-fluoropyridin-4-yl)benzo[d]thiazol-2-yl)methyl)-1,3,4-oxadiazol-2-yl)methyl)-5-methylimidazolidine-2,4-dione (Isomer A)] the figure was 122 nM.
Take `CC1(Cc2nnc(C(c3nc4ccc(-c5ccc(C(=O)N6CCOCC6)cc5)cc4s3)S(=O)(=O)Cc3ccccc3)o2)NC(=O)NC1=O` (centres unmarked) [Example 5, 5-((5-((benzylsulfonyl)(6-(4-(morpholine-4-carbonyl)phenyl)benzo[d]thiazol-2-yl)methyl)-1,3,4-oxadiazol-2-yl)methyl)-5-methylimidazolidine-2,4-dione]: the IC50 was 30 nM.
With `CS(=O)(=O)C(c1nnc(CS(=O)(=O)O)o1)c1nc2ccc(-c3ccccc3)cc2s1` (centres unmarked) [Example 28, (5-((methylsulfonyl) (6-phenyl-1,3-benzothiazol-2-yl)methyl)-1,3,4-oxadiazol-2-yl) methanesulfonic acid], the IC50 is below 10 nM.

The values above are taken from patent publication US20140011799A1 (Bristol-Myers Squibb Company, priority 2012, published 2014).
